The record followed here is US20220089568A1 (Janssen Biotech, Inc., priority 2019, published 2022).

The target in one assay is T1, human DHODH (Homo sapiens, UniProt Q02127).
T1 construct: purchased Proteros PR-0044
As to the kind of experiment: DHODH Enzymatic Assay. The assay is classed as biochemical. The following applies: purified human DHODH; DCIP absorbance, end-point mode. The method, then: To detect DHODH enzyme activities, dichloroindophenol (DCIP) is added as the final electron acceptor in the assay. DCIP can accept electrons from the reduced coenzyme Q generated in the assay, or from dihydroorotate (DHO) via FMN by binding presumably to the ubiquinone pocket. […] The assay buffer contained […], pH 7.5, 150 mM NaCl, 0.5 mM EDTA, and 0.1% Triton X-100 in MilliQ water. Substrate consisting of 20 mM DHO, 5 mM CoQ6, and 1 mM DCIP in assay buffer, initiates the reaction. […] Absorbance measurements were obtained using the BMG Phera Star plate-reading spectrophotomer. Purified human DHODH was purchased from Proteros (cat. No. PR-0044). Chemicals were purchased from Sigma-Aldrich, Teknova, and Avanti Polar Lipids. Liquid handling was performed using Labcyte Echo and Formulatrix Tempest.

The subject of the next assay is MOLM-13 cells. As to the kind of experiment: MOLM-13 Cellular Assay. Particulars: Homo sapiens, 72 hours exposure, cell viability by CellTiter-Glo. The assay is classed as cell-based. The method, then:
The day prior to assay set-up, cells were pelleted, resuspended in fresh media, counted, and cells were plated at 0.4×10^6 cell/mL in a T150 flask. […] Cells were exposed to different concentrations of test compounds at 37° C., 5% CO2 for 72 hours immediately after seeding.
Background: In ATP-based viability assays light output follows the ATP content of the culture.

Structures are written as SMILES.

In general, EC50 refers to the concentration giving half of the maximal effect. Read a high EC50 as a less potent agent.

T1 sequence (Q02127 whole entry): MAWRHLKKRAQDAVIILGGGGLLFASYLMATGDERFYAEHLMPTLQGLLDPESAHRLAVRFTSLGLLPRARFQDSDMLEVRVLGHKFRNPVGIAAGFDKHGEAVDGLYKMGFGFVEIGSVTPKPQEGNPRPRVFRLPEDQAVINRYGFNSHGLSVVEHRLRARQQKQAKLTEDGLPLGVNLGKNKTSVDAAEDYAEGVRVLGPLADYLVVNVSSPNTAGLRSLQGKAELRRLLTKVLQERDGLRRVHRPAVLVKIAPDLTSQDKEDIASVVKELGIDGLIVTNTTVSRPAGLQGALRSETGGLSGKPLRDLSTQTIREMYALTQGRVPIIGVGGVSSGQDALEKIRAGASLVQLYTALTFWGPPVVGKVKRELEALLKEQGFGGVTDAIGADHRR

`CCn1c(CO)nn(-c2nc(O[C@@H](C)C(F)(F)F)c(C(=O)Nc3nc(OC)ccc3Cl)cc2F)c1=O` [Example 21, (S)-N-(3-chloro-6-methoxypyridin-2-yl)-6-(4-ethyl-3-(hydroxymethyl)-5-oxo-4,5-dihydro-1H-1,2,4-triazol-1-yl)-5-fluoro-2-((1,1,1-trifluoropropan-2-yl)oxy)nicotinamide]: the figures for the EC50 on human DHODH and with MOLM-13 cells were 1.2 nM and 1.8 nM, respectively.
With `CCn1c(CO)nn(-c2nc(O[C@@H](C)C(F)(F)F)c(C(=O)Nc3c(Cl)c[nH]c(=O)c3Cl)cc2F)c1=O` [Example 22, (S)-N-(3,5-Dichloro-2-oxo-1H-pyridin-4-yl)-6-[4-ethyl-3-(hydroxymethyl)-5-oxo-1,2,4-triazol-1-yl]-5-fluoro-2-[(1S)-2,2,2-trifluoro-1-methyl-ethoxy]pyridine-3-carboxamide], the EC50 on human DHODH turned out to be 1.5 nM; in the assay on MOLM-13 cells it was 445 nM.
Consider `CCn1c(CO)nn(-c2nc(O[C@@H](C)C(F)(F)F)c(C(=O)Nc3[nH]c(=O)ccc3Cl)cc2F)c1=O` [Example 23, (S)-N-(3-chloro-6-oxo-1,6-dihydropyridin-2-yl)-6-(4-ethyl-3-(hydroxymethyl)-5-oxo-4,5-dihydro-1H-1,2,4-triazol-1-yl)-5-fluoro-2-((1,1,1-trifluoropropan-2-yl)oxy)nicotinamide], for which the concentration giving a half-maximal response (EC50) came to 13.6 nM at human DHODH and 90 nM with MOLM-13 cells.
With `CCn1c(CO)nn(-c2nc(O[C@@H](C)C(F)(F)F)c(C(=O)Nc3ccnc(OC)c3Cl)cc2F)c1=O` [Example 24, (S)-N-(3-Chloro-2-methoxypyridin-4-yl)-6-(4-ethyl-3-(hydroxymethyl)-5-oxo-4,5-dihydro-1H-1,2,4-triazol-1-yl)-5-fluoro-2-((1,1,1-trifluoropropan-2-yl)oxy)nicotinamide], the EC50 on human DHODH is 10.8 nM; with MOLM-13 cells, 10.1 nM.
In the case of `CCn1c(CO)nn(-c2nc(O[C@@H](C)C(F)(F)F)c(C(=O)Nc3c(C)n[nH]c3Cl)cc2F)c1=O` [Example 25, (S)-N-(5-Chloro-3-methyl-1H-pyrazol-4-yl)-6-(4-ethyl-3-(hydroxymethyl)-5-oxo-4,5-dihydro-1H-1,2,4-triazol-1-yl)-5-fluoro-2-((1,1,1-trifluoropropan-2-yl)oxy)nicotinamide], the results for the EC50 on human DHODH and in the assay with MOLM-13 cells were 0.84 nM and 3 nM, respectively.
`CCn1c(CO)nn(-c2nc(O[C@@H](C)C(F)(F)F)c(C(=O)Nc3snc(C)c3Cl)cc2F)c1=O` [Example 26, (S)-N-(4-Chloro-3-methylisothiazol-5-yl)-6-(4-ethyl-3-(hydroxymethyl)-5-oxo-4,5-dihydro-1H-1,2,4-triazol-1-yl)-5-fluoro-2-((1,1,1-trifluoropropan-2-yl)oxy)nicotinamide]: the concentration for a half-maximal effect (EC50) on human DHODH is 108 nM; with MOLM-13 cells, > 100 nM.
In the case of `CCn1c(CO)nn(-c2nc(O[C@@H](C)C(F)(F)F)c(C(=O)Nc3cnccc3Cl)cc2F)c1=O` [Example 27, (S)-N-(4-Chloropyridin-3-yl)-6-(4-ethyl-3-(hydroxymethyl)-5-oxo-4,5-dihydro-1H-1,2,4-triazol-1-yl)-5-fluoro-2-((1,1,1-trifluoropropan-2-yl)oxy)nicotinamide], the EC50 at human DHODH was 4.7 nM; with MOLM-13 cells it was 7.7 nM.
For `CCn1c(CO)nn(-c2nc(O[C@@H](C)C(F)(F)F)c(C(=O)Nc3c(F)cncc3Cl)cc2F)c1=O` [Example 28, (S)-N-(3-Chloro-5-fluoropyridin-4-yl)-6-(4-ethyl-3-(hydroxymethyl)-5-oxo-4,5-dihydro-1H-1,2,4-triazol-1-yl)-5-fluoro-2-((1,1,1-trifluoropropan-2-yl)oxy)nicotinamide], the EC50 at human DHODH stood at 2.3 nM; with MOLM-13 cells, 4.7 nM.
`CCn1c(CO)nn(-c2nc(O[C@@H](C)C(F)(F)F)c(C(=O)Nc3c(F)cncc3C#N)cc2F)c1=O` [Example 29, (S)-N-(3-Cyano-5-fluoropyridin-4-yl)-6-(4-ethyl-3-(hydroxymethyl)-5-oxo-4,5-dihydro-1H-1,2,4-triazol-1-yl)-5-fluoro-2-((1,1,1-trifluoropropan-2-yl)oxy)nicotinamide]: the EC50 at human DHODH worked out at 2.5 nM; in the assay on MOLM-13 cells it was 4.4 nM.
For `CCn1c(CO)nn(-c2nc(O[C@@H](C)C(F)(F)F)c(C(=O)Nc3c(F)cnc(OC)c3Cl)cc2F)c1=O` [Example 30, (S)-N-(3-Chloro-5-fluoro-2-methoxypyridin-4-yl)-6-(4-ethyl-3-(hydroxymethyl)-5-oxo-4,5-dihydro-1H-1,2,4-triazol-1-yl)-5-fluoro-2-((1,1,1-trifluoropropan-2-yl)oxy)nicotinamide], in that order: 1.2 nM and 1.3 nM.
In the case of `CCn1c(CO)nn(-c2nc(O[C@@H](C)C(F)(F)F)c(C(=O)Nc3snc(C)c3Br)cc2F)c1=O` [Example 31, (S)-N-(4-Bromo-3-methylisothiazol-5-yl)-6-(4-ethyl-3-(hydroxymethyl)-5-oxo-4,5-dihydro-1H-1,2,4-triazol-1-yl)-5-fluoro-2-((1,1,1-trifluoropropan-2-yl)oxy)nicotinamide], the figures for the EC50 on human DHODH and in the assay on MOLM-13 cells were 233 nM and > 100 nM, respectively.
Take `CCn1c(CO)nn(-c2nc(O[C@@H](C)C(F)(F)F)c(C(=O)Nc3ncsc3C)cc2F)c1=O` [Example 32, (S)-6-(4-Ethyl-3-(hydroxymethyl)-5-oxo-4,5-dihydro-1H-1,2,4-triazol-1-yl)-5-fluoro-N-(5-methylthiazol-4-yl)-2-((1,1,1-trifluoropropan-2-yl)oxy)nicotinamide]: the 50% effective concentration (EC50) on human DHODH was determined as 13.6 nM; with MOLM-13 cells, 25.3 nM.
Take `CCn1c(CO)nn(-c2nc(O[C@@H](C)C(F)(F)F)c(C(=O)Nc3cc(Cl)cnc3OC)cc2F)c1=O` [Example 33, (S)-N-(5-Chloro-2-methoxypyridin-3-yl)-6-(4-ethyl-3-(hydroxymethyl)-5-oxo-4,5-dihydro-1H-1,2,4-triazol-1-yl)-5-fluoro-2-((1,1,1-trifluoropropan-2-yl)oxy)nicotinamide]: the EC50 was 52.5 nM on human DHODH and > 100 nM in the assay with MOLM-13 cells.
For `CCn1c(CO)nn(-c2nc(O[C@@H](C)C(F)(F)F)c(C(=O)Nc3nccnc3OC)cc2F)c1=O` [Example 34, (S)-6-(4-Ethyl-3-(hydroxymethyl)-5-oxo-4,5-dihydro-1H-1,2,4-triazol-1-yl)-5-fluoro-N-(3-methoxypyrazin-2-yl)-2-((1,1,1-trifluoropropan-2-yl)oxy)nicotinamide], the EC50 at human DHODH is 360 nM; in the assay on MOLM-13 cells, > 100 nM.
As to `CCn1c(CO)nn(-c2nc(O[C@@H](C)C(F)(F)F)c(C(=O)Nc3c(C)nsc3C)cc2F)c1=O` [Example 35, (S)-N-(3,5-Dimethylisothiazol-4-yl)-6-(4-ethyl-3-(hydroxymethyl)-5-oxo-4,5-dihydro-1H-1,2,4-triazol-1-yl)-5-fluoro-2-((1,1,1-trifluoropropan-2-yl)oxy)nicotinamide], the EC50 was 1.9 nM on human DHODH and 6.1 nM with MOLM-13 cells.
For `CCn1c(CO)nn(-c2nc(O[C@@H](C)C(F)(F)F)c(C(=O)Nc3cc(C)cnc3F)cc2F)c1=O` [Example 36, (S)-6-(4-Ethyl-3-(hydroxymethyl)-5-oxo-4,5-dihydro-1H-1,2,4-triazol-1-yl)-5-fluoro-N-(2-fluoro-5-methylpyridin-3-yl)-2-((1,1,1-trifluoropropan-2-yl)oxy)nicotinamide], the EC50 was 58.6 nM at human DHODH and > 100 nM in the assay on MOLM-13 cells.
As to `CCn1c(CO)nn(-c2nc(O[C@@H](C)C(F)(F)F)c(C(=O)Nc3cc(C)ncc3F)cc2F)c1=O` [Example 37, (S)-6-(4-Ethyl-3-(hydroxymethyl)-5-oxo-4,5-dihydro-1H-1,2,4-triazol-1-yl)-5-fluoro-N-(5-fluoro-2-methylpyridin-4-yl)-2-((1,1,1-trifluoropropan-2-yl)oxy)nicotinamide], the figures for the EC50 at human DHODH and with MOLM-13 cells were 200 nM and > 100 nM, respectively.
For `CCn1c(CO)nn(-c2nc(O[C@@H](C)C(F)(F)F)c(C(=O)Nc3c(C)ncnc3Cl)cc2F)c1=O` [Example 38, (S)-N-(4-Chloro-6-methylpyrimidin-5-yl)-6-(4-ethyl-3-(hydroxymethyl)-5-oxo-4,5-dihydro-1H-1,2,4-triazol-1-yl)-5-fluoro-2-((1,1,1-trifluoropropan-2-yl)oxy)nicotinamide], the EC50 is 2390 nM at human DHODH and > 100 nM in the assay with MOLM-13 cells.
`CCn1c(CO)nn(-c2nc(O[C@@H](C)C(F)(F)F)c(C(=O)Nc3nc(C)ccc3F)cc2F)c1=O` [Example 39, (S)-6-(4-Ethyl-3-(hydroxymethyl)-5-oxo-4,5-dihydro-1H-1,2,4-triazol-1-yl)-5-fluoro-N-(3-fluoro-6-methylpyridin-2-yl)-2-((1,1,1-trifluoropropan-2-yl)oxy)nicotinamide]: the EC50 at human DHODH stood at 14.1 nM; with MOLM-13 cells, 16.5 nM.
As for `CCn1c(CO)nn(-c2nc(O[C@@H](C)C(F)(F)F)c(C(=O)Nc3c(C)cnc(OC)c3Cl)cc2F)c1=O` [Example 40, (S)-N-(3-Chloro-2-methoxy-5-methylpyridin-4-yl)-6-(4-ethyl-3-(hydroxymethyl)-5-oxo-4,5-dihydro-1H-1,2,4-triazol-1-yl)-5-fluoro-2-((1,1,1-trifluoropropan-2-yl)oxy)nicotinamide], the 50% effective concentration (EC50) was 0.31 nM at human DHODH and 0.3 nM with MOLM-13 cells.
